Laboratory results as given in ChEMBL document CHEMBL4732189, “A facile synthesis of diaryl pyrroles led to the discovery of potent colchicine site antimitotic agents” (Eur J Med Chem, 2021).
Activity calls are given as the source filed them. No cut-off for these calls is given here.

Columns and labels:
[1] = Toxicity in C57BL/6 mouse allografted with mouse EO771 cells assessed as reduction in body weight at 15 mg/kg, ip; format: organism-based; details: in vivo
Bos taurus [2] = organism: Bos taurus; assay: Displacement of [3H]colchicine from bovine brain tubulin at 0.5 uM by DEAE-cellulose filter method relative to control; format: tissue-based
SEM cells = assay: Antiproliferative activity against human SEM cells assessed as reduction in cell viability after 72 hrs by MTT assay; format: functional, cell-based
PBL [3] = assay: Cytotoxicity against human PBL cells assessed reduction in cell viability after 72 hrs by MTT assay; format: cell-based
Bos taurus [4] = organism: Bos taurus; assay: Displacement of [3H]colchicine from bovine brain tubulin at 5 uM by DEAE-cellulose filter method relative to control; format: tissue-based
HT-29 [5] = assay: Induction of cell cycle arrest in human HT-29 cells assessed as decrease in accumulation at S phase at 1 to 100 nM after 24 hrs by propidium iodide staining based flow cytometric analysis; format: functional; details: dose 1-100 nM
HeLa [6] = assay: Induction of cell cycle arrest in human HeLa cells assessed as increase in cyclin B1 protein expression at 50 nM after 24 to 48 hrs by Western blot analysis; format: functional, cell-based; details: time 24-48 hrs
HL-60 = assay: Antiproliferative activity against human HL-60 cells assessed as reduction in cell viability after 72 hrs by MTT assay; format: functional, cell-based; details: HL-60, 72 h
PBL [7] = assay: Cytotoxicity against PHA-induced human PBL cells assessed reduction in cell viability after 72 hrs by MTT assay; format: cell-based
EO771 [8] = assay: Antitumour activity against mouse EO771 cells allografted in ip dosed C57BL/6 mouse assessed as reduction in tumor mass; format: functional, organism-based; details: dose lower 5.0 mg/kg, dose upper […]
HeLa [9] = assay: Induction of ROS generation in human HeLa cells assessed as increase in DCF fluorescence at 50 nM after 24 to 48 hrs by H2-DCFDA staining based flow cytometric analysis; format: functional, cell-based; details: time 24-48 hrs
HT-29 [10] = assay: cells; details: Homo sapiens, HT-29, 72 h
HT-29 [11] = assay: Induction of cell cycle arrest in human HT-29 cells assessed as decrease in accumulation at G1 phase at 1 to 100 nM after 24 hrs by propidium iodide staining based flow cytometric analysis; format: functional; details: dose 1-100 nM
HeLa [12] = assay: Induction of cell cycle arrest in human HeLa cells assessed as increase in accumulation at G2/M phase after 24 hrs by propidium iodide staining based flow cytometric analysis; format: functional; details: dose 1-100 nM
A549 = assay: cells; details: Homo sapiens, A549, 72 h
Description: Antiproliferative activity against human A549 cells assessed as reduction in cell viability after 72 hrs by MTT assay

HeLa [13] = assay: Induction of cell cycle arrest in human HeLa cells assessed as decrease in accumulation at S phase at 1 to 100 nM after 24 hrs by propidium iodide staining based flow cytometric analysis; format: functional; details: dose 1-100 nM
HeLa [14] = assay: Induction of apoptosis in human HeLa cells at 50 nM after 24 to 48 hrs by annexinV-FITC/propidium iodide staining based flow cytometric analysis; format: functional, cell-based; details: time 24-48 hrs
EO771 [15] = assay: Antitumour activity against mouse EO771 cells allografted in C57BL/6 mouse assessed as reduction in tumor volume at 5 mg/kg, ip; format: functional, organism-based
CCRF-CEM = assay: Antiproliferative activity against human CCRF-CEM cells assessed as reduction in cell viability after 72 hrs by MTT assay; format: functional, cell-based
HeLa [16] = assay: Induction of cell cycle arrest in human HeLa cells assessed as decrease in accumulation at G1 phase at 1 to 100 nM after 24 hrs by propidium iodide staining based flow cytometric analysis; format: functional; details: dose 1-100 nM
HT-29 [17] = assay: Induction of cell cycle arrest in human HT-29 cells assessed as increase in accumulation at G2/M phase after 24 hrs by propidium iodide staining based flow cytometric analysis; format: functional; details: dose 1-100 nM
HeLa [18] = assay: Induction of apoptosis in human HeLa cells assessed as increase in cleaved PARP level at 25 nM after 24 hrs by Western blot analysis; format: functional, cell-based
[19] = Inhibition of bovine brain tubulin polymerization incubated for 15 mins followed by GTP addition and measured after 20 mins by spectrophotometric method; format: tissue-based, Bos taurus
HeLa [20] = assay: Induction of apoptosis in human HeLa cells assessed as decrease in cleaved Mcl-1 protein expression at 50 nM after 24 to 48 hrs by Western blot analysis; format: functional, cell-based; details: time 24-48 hrs
[21] = target: Cyclin-dependent kinase 1 (Homo sapiens) (UniProt P06493); assay: Inhibition of cdc2 phosphorylation at Y15 residues in human HeLa cells at 25 to 50 nM after 24 to 48 hrs by Western blot analysis; format: cell-based; details: dose 25-50 nM, time 24-48 hrs
HeLa [22] = assay: Induction of apoptosis in human HeLa cells assessed as decrease in cleaved Bcl-2 protein expression at 50 nM after 24 to 48 hrs by Western blot analysis; format: functional, cell-based; details: time 24-48 hrs
HeLa [23] = assay: cells; details: Homo sapiens, 72 h
Description: Antiproliferative activity against human HeLa cells assessed as reduction in cell viability after 72 hrs by MTT assay

HeLa [24] = assay: Induction of cell cycle arrest in human HeLa cells assessed as decrease in cdc25c protein expression at 50 nM after 24 to 48 hrs by Western blot analysis; format: functional, cell-based; details: time 24-48 hrs
HeLa [25] = assay: Induction of apoptosis in human HeLa cells assessed as decrease in cleaved XIAP protein expression at 50 nM after 24 to 48 hrs by Western blot analysis; format: functional, cell-based; details: time 24-48 hrs
Tubulin = assay: Inhibition of tubulin (unknown origin) polymerization incubated for 90 mins by fluorescence-based assay; format: protein-complex assay, Homo sapiens
KB = assay: Antiproliferative activity against human KB cells assessed as reduction in cell viability after 72 hrs by MTT assay; format: functional, cell-based
HT-1080 = assay: Antiproliferative activity against human […] cells assessed as reduction in cell viability after 72 hrs by MTT assay; format: functional, cell-based; details: HT-1080, 72 h
SGC-7901 = assay: Antiproliferative activity against human SGC-7901 cells assessed as reduction in cell viability after 72 hrs by MTT assay; format: functional, cell-based; details: SGC-7901, 72 h

Cyclin-dependent kinase 1 (Homo sapiens), sequence (P06493 whole entry, looked up): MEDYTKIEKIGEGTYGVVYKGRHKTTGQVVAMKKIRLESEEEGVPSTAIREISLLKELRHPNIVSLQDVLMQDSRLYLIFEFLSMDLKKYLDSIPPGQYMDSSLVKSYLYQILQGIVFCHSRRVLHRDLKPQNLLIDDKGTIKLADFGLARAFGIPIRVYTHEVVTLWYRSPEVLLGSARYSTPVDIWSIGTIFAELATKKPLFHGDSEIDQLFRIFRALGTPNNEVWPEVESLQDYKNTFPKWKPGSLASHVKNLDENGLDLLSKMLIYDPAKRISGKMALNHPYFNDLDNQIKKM

## CCOc1ccc(-c2c[nH]cc2-c2cc(OC)c(OC)c(OC)c2)cc1F
[1]
  Activity: Non-Toxic
Bos taurus [2]
  inhibition: 83%
SEM cells
  IC50: 1.7 nM
PBL [3]
  IC50: > 10 µM
Bos taurus [4]
  inhibition: 93%
HT-29 [5]
  Activity: Active
HeLa [6]
  Activity: Active
HL-60
  IC50: 168 nM
PBL [7]
  IC50: > 10 µM
EO771 [8]
  Activity: Dose-dependent effect
HeLa [9]
  Activity: Active
HT-29 [10]
  IC50: 28 nM
HT-29 [11]
  Activity: Active
HeLa [12]
  Activity: Dose-dependent effect
A549
  IC50: 0.028 µM
HeLa [13]
  Activity: Active
HeLa [14]
  Activity: Active
EO771 [15]
  Activity: Dose-dependent effect
CCRF-CEM
  IC50: 7.5 nM
HeLa [16]
  Activity: Active
HT-29 [17]
  Activity: Dose-dependent effect
HeLa [18]
  Activity: Active
[19]
  IC50: 660 nM
HeLa [20]
  Activity: Active
[21]
  inhibition: Active
HeLa [22]
  Activity: Active
HeLa [23]
  IC50: 26 nM
HeLa [24]
  Activity: Active
HeLa [25]
  Activity: Active

## CCOc1ccc(-c2cccn2-c2cc(OC)c(OC)c(OC)c2)cc1
SEM cells
  IC50: 140 nM
Bos taurus [4]
  inhibition: 63%
HL-60
  IC50: 360 nM
HT-29 [10]
  IC50: 390 nM
A549
  IC50: 4.52 µM
CCRF-CEM
  IC50: 1910 nM
[19]
  IC50: 5600 nM
HeLa [23]
  IC50: 390 nM

## COc1cc(-c2c[nH]cc2-c2ccc(C)cc2)cc(OC)c1OC
SEM cells
  IC50: 17.2 nM
Bos taurus [4]
  inhibition: 83%
HL-60
  IC50: 31.7 nM
HT-29 [10]
  IC50: 130 nM
A549
  IC50: 0.098 µM
CCRF-CEM
  IC50: 47 nM
[19]
  IC50: 1200 nM
HeLa [23]
  IC50: 54 nM

## COc1cc(-n2cccc2-c2ccc3ccccc3c2)cc(OC)c1OC
SEM cells
  IC50: 150 nM
Bos taurus [4]
  inhibition: 74%
HL-60
  IC50: 400 nM
HT-29 [10]
  IC50: 650 nM
A549
  IC50: 3.1 µM
CCRF-CEM
  IC50: 1310 nM
[19]
  IC50: 1600 nM
HeLa [23]
  IC50: 410 nM

## COc1cc(-c2cccn2-c2ccc(C)cc2)cc(OC)c1OC
SEM cells
  IC50: 140 nM
Bos taurus [4]
  inhibition: 55%
HL-60
  IC50: 630 nM
HT-29 [10]
  IC50: 5220 nM
A549
  IC50: > 10 µM
CCRF-CEM
  IC50: 2410 nM
[19]
  IC50: 2400 nM
HeLa [23]
  IC50: 3310 nM

## COc1cc(-c2cccn2-c2ccc3ccccc3c2)cc(OC)c1OC
SEM cells
  IC50: 190 nM
Bos taurus [4]
  inhibition: 70%
HL-60
  IC50: 400 nM
HT-29 [10]
  IC50: 840 nM
A549
  IC50: 5.52 µM
CCRF-CEM
  IC50: 1410 nM
[19]
  IC50: 1600 nM
HeLa [23]
  IC50: 430 nM

## COc1cc(-n2cccc2-c2ccc(C)cc2)cc(OC)c1OC
SEM cells
  IC50: 270 nM
Bos taurus [4]
  inhibition: 60%
HL-60
  IC50: 350 nM
HT-29 [10]
  IC50: 3910 nM
A549
  IC50: 9.62 µM
CCRF-CEM
  IC50: 2430 nM
[19]
  IC50: 1600 nM
HeLa [23]
  IC50: 3220 nM

## COc1ccc(-c2cccn2-c2cc(OC)c(OC)c(OC)c2)cc1F
SEM cells
  IC50: 200 nM
Bos taurus [4]
  inhibition: 64%
HL-60
  IC50: 370 nM
HT-29 [10]
  IC50: 4120 nM
A549
  IC50: 9.01 µM
CCRF-CEM
  IC50: 1710 nM
[19]
  IC50: 2600 nM
HeLa [23]
  IC50: 6120 nM

## COc1ccc(-n2cccc2-c2cc(OC)c(OC)c(OC)c2)cc1N
Tubulin
  IC50: 10 µM
KB
  IC50: 45 nM
HT-1080
  IC50: 70 nM
SGC-7901
  IC50: 390 nM

## CCOc1ccc(-n2cccc2-c2cc(OC)c(OC)c(OC)c2)cc1
SEM cells
  IC50: 270 nM
Bos taurus [4]
  inhibition: 57%
HL-60
  IC50: 430 nM
HT-29 [10]
  IC50: 5520 nM
A549
  IC50: > 10 µM
CCRF-CEM
  IC50: 3020 nM
[19]
  IC50: 2300 nM
HeLa [23]
  IC50: 3420 nM

## CCOc1ccc(-c2c[nH]cc2-c2cc(OC)c(OC)c(OC)c2)cc1
Bos taurus [2]
  inhibition: 80%
SEM cells
  IC50: 2.8 nM
Bos taurus [4]
  inhibition: 92%
HL-60
  IC50: 149 nM
HT-29 [10]
  IC50: 42 nM
A549
  IC50: 0.081 µM
CCRF-CEM
  IC50: 16.6 nM
[19]
  IC50: 820 nM
HeLa [23]
  IC50: 37 nM

## CCOc1ccc(-c2c[nH]cc2-c2cc(OC)c(OC)c(OC)c2)cc1Cl
Bos taurus [2]
  inhibition: 68%
SEM cells
  IC50: 39 nM
Bos taurus [4]
  inhibition: 90%
HL-60
  IC50: 144 nM
HT-29 [10]
  IC50: 64 nM
A549
  IC50: 0.079 µM
CCRF-CEM
  IC50: 153 nM
[19]
  IC50: 710 nM
HeLa [23]
  IC50: 37 nM

## CCc1ccc(-n2cccc2-c2cc(OC)c(OC)c(OC)c2)cc1
SEM cells
  IC50: 1330 nM
HL-60
  IC50: 3610 nM
HT-29 [10]
  IC50: 8340 nM
A549
  IC50: > 10 µM
CCRF-CEM
  IC50: 4310 nM
HeLa [23]
  IC50: > 10000 nM

## CCOc1ccc(-c2cccn2-c2cc(OC)c(OC)c(OC)c2)cc1Cl
SEM cells
  IC50: 100 nM
Bos taurus [4]
  inhibition: 68%
HL-60
  IC50: 390 nM
HT-29 [10]
  IC50: 730 nM
A549
  IC50: 8.4 µM
CCRF-CEM
  IC50: 2920 nM
[19]
  IC50: 1300 nM
HeLa [23]
  IC50: 350 nM

## CCCOc1ccc(-c2c[nH]cc2-c2cc(OC)c(OC)c(OC)c2)cc1
SEM cells
  IC50: 913 nM
HL-60
  IC50: 3620 nM
HT-29 [10]
  IC50: 703 nM
A549
  IC50: 0.683 µM
CCRF-CEM
  IC50: 4240 nM
HeLa [23]
  IC50: 370 nM

## COc1ccc(-c2cccn2-c2cc(OC)c(OC)c(OC)c2)cc1
SEM cells
  IC50: 150 nM
HL-60
  IC50: 470 nM
HT-29 [10]
  IC50: 2120 nM
A549
  IC50: > 10 µM
CCRF-CEM
  IC50: 2510 nM
HeLa [23]
  IC50: 1920 nM
